Measurements reported in patent publication US6274715A, “Tricyclic erythromycin derivatives” (priority 1997, dated 2001).
Converted amounts (≈) assume the structure as drawn.

Experiments:
Format in all cases: cell-based
PSEUDOMONAS CEPACIA 296I = test: In vitro antibacterial activity, MIC, BHI agar dilution; conditions: P. cepacia 296I, unit assumed
[1] = test system: MYCOBACTERIUM SMEGMATIS ATCC 114; test: as above; conditions: M. smegmatis ATCC 114, unit assumed
[2] = test system: ENTEROBACTER AEROGENES ATCC 13048; test: as above; conditions: E. aerogenes ATCC 13048, unit assumed
[3] = test system: STAPHYLOCOCCUS AUREUS A-5278; test: as above; conditions: S. aureus A-5278, unit assumed
[4] = test system: STAPHYLOCOCCUS AUREUS CMX 553; test: as above; conditions: S. aureus CMX 553, unit assumed
ESCHERICHIA COLI SS = test: as above; conditions: E. coli SS, unit assumed
[5] = test system: PSEUDOMONAS AERUGINOSA K799/61; test: as above; conditions: P. aeruginosa K799/61, unit assumed
[6] = test system: STREPTOCOCCUS PYOGENES EES61; test: as above; conditions: S. pyogenes EES61, unit assumed
[7] = test system: STAPHYLOCOCCUS AUREUS A5177; test: as above; conditions: S. aureus A5177, unit assumed
ESCHERICHIA COLI JUHL = conditions: E. coli JUHL; BHI agar; unit assumed
[8] = test system: PROVIDENCIA STUARTII CMX 640; conditions: P. stuartii CMX 640; BHI agar; unit assumed
[9] = test system: PSEUDOMONAS AERUGINOSA K799/WT; test: In vitro antibacterial activity, MIC, BHI agar dilution; conditions: P. aeruginosa K799/WT, unit assumed
[10] = test system: PSEUDOMONAS AERUGINOSA DPHD-2862; test: as above; conditions: P. aeruginosa DPHD-2862, unit assumed
[11] = test system: KLEBSIELLA PNEUMONIAE ATCC 8045; test: as above; conditions: K. pneumoniae ATCC 8045, unit assumed
[12] = test system: STREPTOCOCCUS BOVIS A-5169; test: as above; conditions: S. bovis A-5169, unit assumed
[13] = test system: PSEUDOMONAS AERUGINOSA DPHD-5263; test: as above; conditions: P. aeruginosa DPHD-5263, unit assumed
[14] = test system: STAPHYLOCOCCUS AUREUS ATCC 6538P; test: as above; conditions: S. aureus ATCC 6538P, 35-37° C., 20 to 24 hours, unit assumed
[15] = test system: STAPHYLOCOCCUS AUREUS NCTC10649M; test: as above; conditions: S. aureus NCTC10649M, unit assumed
[16] = test system: STAPHYLOCOCCUS AUREUS CMX 642A; test: as above; conditions: S. aureus CMX 642A, unit assumed
EN[…] ATCC 8043 = test: as above; conditions: E. faecium ATCC 8043, unit assumed
How it was run: (§1)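 Twelve successive aqueous dilutions of compound in Brain Heart Infusion agar were inoculated with 1:100 culture dilutions (1:10 for slow growers such as Micrococcus, Streptococcus) by Steers replicator and incubated at 35-37° C for 20 to 24 hours. MIC was the lowest concentration giving no growth, slight haze or sparse colonies versus drug-free control.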

M[…] ATCC 4698 = test: as above; conditions: M. luteus ATCC 4698, unit assumed
How it was run: as §1

M[…] ATCC 9341 = test: as above; conditions: M. luteus ATCC 9341, unit assumed
How it was run: as §1

STR[…] 508 = test: as above; conditions: S. agalactiae CMX 508, unit assumed
How it was run: as §1

ESCHERICHIA COLI KNK 437 = conditions: E. coli KNK 437; BHI agar; unit assumed
CANDIDA ALBICANS CCH 442 = test: In vitro antibacterial activity, MIC, BHI agar dilution; conditions: C. albicans CCH 442, unit assumed
[17] = test system: PSEUDOMONAS AERUGINOSA 5007; test: as above; conditions: P. aeruginosa 5007, unit assumed
[18] = test system: STAPHYLOCOCCUS AUREUS 1775; test: as above; conditions: S. aureus 1775, unit assumed
ESCHERICHIA COLI H560 = test: as above; conditions: E. coli H560, unit assumed
[19] = test system: STAPHYLOCOCCUS EPIDERMIDIS 3519; conditions: S. epidermidis 3519; BHI agar; unit assumed
[20] = test system: PSEUDOMONAS AERUGINOSA BMH10; test: In vitro antibacterial activity, MIC, BHI agar dilution; conditions: P. aeruginosa BMH10, unit assumed
[21] = test system: STREPTOCOCCUS PYOGENES 930; test: as above; conditions: S. pyogenes 930, unit assumed
ESCHERICHIA COLI DC-2 = test: as above; conditions: E. coli DC-2, unit assumed
[22] = test system: STREPTOCOCCUS PYOGENES PIU 2548; test: as above; conditions: S. pyogenes PIU 2548, unit assumed

Structure (SMILES)	MIC (PSEUDOMONAS CEPACIA 296I) [µg/mL]	MIC [2] [µg/mL]	MIC [3] [µg/mL]	MIC [4] [µg/mL]	MIC [5] [µg/mL]	MIC [6] [µg/mL]	MIC [7] [µg/mL]	MIC (ESCHERICHIA COLI JUHL) [µg/mL]	MIC [8] [µg/mL]	MIC [9] [µg/mL]	MIC [10] [µg/mL]	MIC [11] [µg/mL]	MIC [12] [µg/mL]	MIC [13] [µg/mL]	MIC [14] [µg/mL]	MIC [15] [µg/mL]	MIC [16] [µg/mL]	MIC (EN[…] ATCC 8043) [µg/mL]	MIC (M[…] ATCC 4698) [µg/mL]	MIC (M[…] ATCC 9341) [µg/mL]	other results
CC[C@H]1OC(=O)[C@H](C)C(=O)[C@H](C)[C@@H](O[C@@H]2O[C@H](C)C[C@H](N(C)C)[C@H]2O)[C@](C)(OC)C[C@@H](C)C2=N[C@H](COCc3ccncc3)CN3C(=O)O[C@@]1(C)[C@H]3[C@H]2C [Example 77]	> 100	> 100	> 100	0.39 (≈ 0.514 µM)	1.56 (≈ 2.06 µM)	< 0.005	0.2 (≈ 0.264 µM)	> 100	> 100	100 (≈ 132 µM)	> 100	> 100	≤ 0.005	> 100	0.39 (≈ 0.514 µM)	0.39 (≈ 0.514 µM)	0.39 (≈ 0.514 µM)	0.05 (≈ 0.0659 µM)	0.39 (≈ 0.514 µM)	0.05 (≈ 0.0659 µM)	MIC [1]: 0.78 µg/mL (≈ 1.03 µM); MIC (ESCHERICHIA COLI SS): 0.39 µg/mL (≈ 0.514 µM); MIC (STR[…] 508): 0.01 µg/mL (≈ 0.0132 µM); MIC (ESCHERICHIA COLI KNK 437): > 100 µg/mL; MIC (CANDIDA ALBICANS CCH 442): > 100 µg/mL; MIC [17]: > 100 µg/mL; MIC [18]: > 100 µg/mL; MIC (ESCHERICHIA COLI H560): 50 µg/mL (≈ 65.9 µM); MIC [19]: 0.39 µg/mL (≈ 0.514 µM); MIC [20]: > 100 µg/mL; MIC [21]: > 100 µg/mL; MIC (ESCHERICHIA COLI DC-2): 100 µg/mL (≈ 132 µM)
CC[C@H]1OC(=O)[C@H](C)C(=O)[C@H](C)[C@@H](O[C@@H]2O[C@H](C)C[C@H](N(C)C)[C@H]2O)[C@](C)(OC)C[C@@H](C)C2=N[C@@H](COCc3ccncc3)CN3C(=O)O[C@@]1(C)[C@H]3[C@H]2C [Example 86]	> 100	> 100	> 100	0.39 (≈ 0.514 µM)	1.56 (≈ 2.06 µM)	< 0.005	0.2 (≈ 0.264 µM)	> 100	> 100	100 (≈ 132 µM)	> 100	> 100	≤ 0.005	> 100	0.39 (≈ 0.514 µM)	0.39 (≈ 0.514 µM)	0.39 (≈ 0.514 µM)	0.05 (≈ 0.0659 µM)	0.39 (≈ 0.514 µM)	0.05 (≈ 0.0659 µM)	MIC [1]: 0.78 µg/mL (≈ 1.03 µM); MIC (ESCHERICHIA COLI SS): 0.39 µg/mL (≈ 0.514 µM); MIC (STR[…] 508): 0.01 µg/mL (≈ 0.0132 µM); MIC (ESCHERICHIA COLI KNK 437): > 100 µg/mL; MIC (CANDIDA ALBICANS CCH 442): > 100 µg/mL; MIC [17]: > 100 µg/mL; MIC [18]: > 100 µg/mL; MIC (ESCHERICHIA COLI H560): 50 µg/mL (≈ 65.9 µM); MIC [19]: 0.39 µg/mL (≈ 0.514 µM); MIC [20]: > 100 µg/mL; MIC [21]: > 100 µg/mL; MIC (ESCHERICHIA COLI DC-2): 100 µg/mL (≈ 132 µM)
CC[C@H]1OC(=O)[C@H](C)C(=O)[C@H](C)[C@@H](O[C@@H]2O[C@H](C)C[C@H](N(C)C)[C@H]2O)[C@](C)(OC)C[C@@H](C)C2=NC3CCCCC3N3C(=O)O[C@@]1(C)[C@H]3[C@H]2C (stereo partly shown) [Example 106]	100 (≈ 145 µM)	50 (≈ 72.3 µM)	> 100	0.2 (≈ 0.289 µM)	0.78 (≈ 1.13 µM)	≤ 0.005	0.2 (≈ 0.289 µM)	25 (≈ 36.1 µM)	> 100	100 (≈ 145 µM)	> 100	100 (≈ 145 µM)	≤ 0.005	100 (≈ 145 µM)	0.2 (≈ 0.289 µM)	0.2 (≈ 0.289 µM)	0.39 (≈ 0.564 µM)	0.05 (≈ 0.0723 µM)	0.39 (≈ 0.564 µM)	0.05 (≈ 0.0723 µM)	MIC [1]: 3.1 µg/mL (≈ 4.48 µM); MIC (ESCHERICHIA COLI SS): 0.39 µg/mL (≈ 0.564 µM); MIC (STR[…] 508): 0.02 µg/mL (≈ 0.0289 µM); MIC (ESCHERICHIA COLI KNK 437): 25 µg/mL (≈ 36.1 µM); MIC (CANDIDA ALBICANS CCH 442): > 100 µg/mL; MIC [17]: > 100 µg/mL; MIC [18]: > 100 µg/mL; MIC (ESCHERICHIA COLI H560): 12.5 µg/mL (≈ 18.1 µM); MIC [19]: 0.2 µg/mL (≈ 0.289 µM); MIC [20]: 100 µg/mL (≈ 145 µM); MIC [21]: > 100 µg/mL; MIC (ESCHERICHIA COLI DC-2): 25 µg/mL (≈ 36.1 µM)
CC[C@H]1OC(=O)[C@H](C)C(=O)[C@H](C)[C@@H](O[C@@H]2O[C@H](C)C[C@H](N(C)C)[C@H]2O)[C@](C)(OC)C[C@@H](C)C2=NC3CN(C(C)c4ccccc4)CC3N3C(=O)O[C@@]1(C)[C@H]3[C@H]2C (stereo partly shown) [Example 113]	> 100	> 100	> 100	0.78 (≈ 0.996 µM)	3.1 (≈ 3.96 µM)	0.05 (≈ 0.0639 µM)	0.39 (≈ 0.498 µM)	> 100	> 100	> 100	> 100	> 100	0.01 (≈ 0.0128 µM)	> 100	0.78 (≈ 0.996 µM)	0.78 (≈ 0.996 µM)	0.78 (≈ 0.996 µM)	0.2 (≈ 0.255 µM)	0.78 (≈ 0.996 µM)	0.1 (≈ 0.128 µM)	MIC (STR[…] 508): 0.2 µg/mL (≈ 0.255 µM); MIC (ESCHERICHIA COLI KNK 437): > 100 µg/mL; MIC (CANDIDA ALBICANS CCH 442): > 100 µg/mL; MIC [17]: > 100 µg/mL; MIC [18]: > 100 µg/mL; MIC (ESCHERICHIA COLI H560): 50 µg/mL (≈ 63.9 µM); MIC [19]: 1.56 µg/mL (≈ 1.99 µM); MIC [20]: > 100 µg/mL; MIC [21]: > 100 µg/mL; MIC (ESCHERICHIA COLI DC-2): > 100 µg/mL; MIC [22]: 0.39 µg/mL (≈ 0.498 µM)
